Results taken from PubChem BioAssay (NCI).
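The compound was tested at five concentrations on cells cultured in 96-well plates, with a 48-hour exposure period. Definition used: TGI = concentration required for complete inhibition of growth.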

Columns and labels:
Experiment in all cases: growth of human tumour cells (NCI), 48 h
786-0 renal = system: 786-0 renal
A498 renal = system: A498 renal
A549 NSCLC = system: A549 NSCLC
ACHN renal = system: ACHN renal
BT-549 breast = system: BT-549 breast
CAKI-1 renal = system: CAKI-1 renal
CCRF-CEM leukemia = system: CCRF-CEM leukemia
COLO 205 colon = system: COLO 205 colon
DU-145 prostate = system: DU-145 prostate
EKVX NSCLC = system: EKVX NSCLC
HCT-116 colon = system: HCT-116 colon
HCT-15 colon = system: HCT-15 colon
HL-60(TB) leukemia = system: HL-60(TB) leukemia
HOP-62 NSCLC = system: HOP-62 NSCLC
HOP-92 NSCLC = system: HOP-92 NSCLC
HS 578T breast = system: HS 578T breast
HT29 colon = system: HT29 colon
IGROV1 ovarian = system: IGROV1 ovarian
K-562 leukemia = system: K-562 leukemia
KM12 colon = system: KM12 colon
LOX IMVI melanoma = system: LOX IMVI melanoma
M14 melanoma = system: M14 melanoma
MALME-3M melanoma = system: MALME-3M melanoma
MCF7 breast = system: MCF7 breast
MDA-MB-231 breast = system: MDA-MB-231 breast
MDA-MB-435 = system: MDA-MB-435
MDA-N = system: MDA-N
MOLT-4 leukemia = system: MOLT-4 leukemia
NCI-H226 lung = system: NCI-H226 lung
NCI-H23 lung = system: NCI-H23 lung
NCI-H460 lung = system: NCI-H460 lung
NCI-H522 lung = system: NCI-H522 lung
NCI/ADR-RES ovarian = system: NCI/ADR-RES ovarian
OVCAR-3 ovarian = system: OVCAR-3 ovarian
OVCAR-4 ovarian = system: OVCAR-4 ovarian
OVCAR-5 ovarian = system: OVCAR-5 ovarian
OVCAR-8 ovarian = system: OVCAR-8 ovarian
PC-3 prostate = system: PC-3 prostate
RPMI-8226 leukemia = system: RPMI-8226 leukemia
RXF 393 renal = system: RXF 393 renal
SF-268 CNS = system: SF-268 CNS
SF-295 CNS = system: SF-295 CNS
SF-539 CNS = system: SF-539 CNS
SK-MEL-2 melanoma = system: SK-MEL-2 melanoma
SK-MEL-28 melanoma = system: SK-MEL-28 melanoma
SK-MEL-5 melanoma = system: SK-MEL-5 melanoma
SK-OV-3 ovarian = system: SK-OV-3 ovarian
SN12C renal = system: SN12C renal
SNB-19 CNS = system: SNB-19 CNS
SNB-75 CNS = system: SNB-75 CNS
SR leukemia = system: SR leukemia
SW-620 colon = system: SW-620 colon
T-47D breast = system: T-47D breast
TK-10 renal = system: TK-10 renal
U251 CNS = system: U251 CNS
UACC-257 melanoma = system: UACC-257 melanoma
UACC-62 melanoma = system: UACC-62 melanoma
UO-31 renal = system: UO-31 renal
HCC-2998 colon = system: HCC-2998 colon

SMILES: O=C(O)c1nnsc1-c1csnn1
- TGI (786-0 renal): > 100 µM
- TGI (A498 renal): > 100 µM
- TGI (A549 NSCLC): > 100 µM
- TGI (ACHN renal): > 100 µM
- TGI (BT-549 breast): > 100 µM
- TGI (CAKI-1 renal): > 100 µM
- TGI (CCRF-CEM leukemia): > 100 µM
- TGI (COLO 205 colon): > 100 µM
- TGI (DU-145 prostate): > 100 µM
- TGI (EKVX NSCLC): > 100 µM
- TGI (HCT-116 colon): > 100 µM
- TGI (HCT-15 colon): > 100 µM
- TGI (HL-60(TB) leukemia): > 100 µM
- TGI (HOP-62 NSCLC): > 100 µM
- TGI (HOP-92 NSCLC): > 100 µM
- TGI (HS 578T breast): > 100 µM
- TGI (HT29 colon): > 100 µM
- TGI (IGROV1 ovarian): > 100 µM
- TGI (K-562 leukemia): > 100 µM
- TGI (KM12 colon): > 100 µM
- TGI (LOX IMVI melanoma): > 100 µM
- TGI (M14 melanoma): > 100 µM
- TGI (MALME-3M melanoma): > 100 µM
- TGI (MCF7 breast): > 100 µM
- TGI (MDA-MB-231 breast): > 100 µM
- TGI (MDA-MB-435): > 100 µM
- TGI (MDA-N): > 100 µM
- TGI (MOLT-4 leukemia): > 100 µM
- TGI (NCI-H226 lung): > 100 µM
- TGI (NCI-H23 lung): > 100 µM
- TGI (NCI-H460 lung): > 100 µM
- TGI (NCI-H522 lung): > 100 µM
- TGI (NCI/ADR-RES ovarian): > 100 µM
- TGI (OVCAR-3 ovarian): > 100 µM
- TGI (OVCAR-4 ovarian): > 100 µM
- TGI (OVCAR-5 ovarian): > 100 µM
- TGI (OVCAR-8 ovarian): > 100 µM
- TGI (PC-3 prostate): > 100 µM
- TGI (RPMI-8226 leukemia): > 100 µM
- TGI (RXF 393 renal): > 100 µM
- TGI (SF-268 CNS): > 100 µM
- TGI (SF-295 CNS): > 100 µM
- TGI (SF-539 CNS): > 100 µM
- TGI (SK-MEL-2 melanoma): > 100 µM
- TGI (SK-MEL-28 melanoma): > 100 µM
- TGI (SK-MEL-5 melanoma): > 100 µM
- TGI (SK-OV-3 ovarian): > 100 µM
- TGI (SN12C renal): > 100 µM
- TGI (SNB-19 CNS): > 100 µM
- TGI (SNB-75 CNS): > 100 µM
- TGI (SR leukemia): > 100 µM
- TGI (SW-620 colon): > 100 µM
- TGI (T-47D breast): > 100 µM
- TGI (TK-10 renal): > 100 µM
- TGI (U251 CNS): > 100 µM
- TGI (UACC-257 melanoma): > 100 µM
- TGI (UACC-62 melanoma): > 100 µM
- TGI (UO-31 renal): > 100 µM

SMILES: COC(=O)/C=C/c1ccc2c(c1)[C@H](C(=O)OC)[C@@H](c1ccc(O)cc1)O2
- TGI (786-0 renal): > 100 µM
- TGI (A498 renal): > 100 µM
- TGI (A549 NSCLC): > 100 µM
- TGI (ACHN renal): > 100 µM
- TGI (BT-549 breast): 46.4 µM
- TGI (CAKI-1 renal): > 100 µM
- TGI (CCRF-CEM leukemia): 78 µM
- TGI (COLO 205 colon): 89.4 µM
- TGI (DU-145 prostate): > 100 µM
- TGI (EKVX NSCLC): > 100 µM
- TGI (HCC-2998 colon): 59.4 µM
- TGI (HCT-116 colon): > 100 µM
- TGI (HCT-15 colon): 47.3 µM
- TGI (HL-60(TB) leukemia): 67.6 µM
- TGI (HOP-62 NSCLC): > 100 µM
- TGI (HOP-92 NSCLC): > 100 µM
- TGI (HS 578T breast): 96.4 µM
- TGI (HT29 colon): > 100 µM
- TGI (IGROV1 ovarian): > 100 µM
- TGI (K-562 leukemia): > 100 µM
- TGI (KM12 colon): 88.1 µM
- TGI (LOX IMVI melanoma): 89.4 µM
- TGI (M14 melanoma): 42.7 µM
- TGI (MALME-3M melanoma): 80.6 µM
- TGI (MCF7 breast): 48.6 µM
- TGI (MDA-MB-231 breast): > 100 µM
- TGI (MDA-MB-435): 16.2 µM
- TGI (MDA-N): 95.7 µM
- TGI (MOLT-4 leukemia): 96.5 µM
- TGI (NCI-H226 lung): > 100 µM
- TGI (NCI-H23 lung): > 100 µM
- TGI (NCI-H460 lung): > 100 µM
- TGI (NCI-H522 lung): 74.2 µM
- TGI (NCI/ADR-RES ovarian): > 100 µM
- TGI (OVCAR-3 ovarian): 28.2 µM
- TGI (OVCAR-4 ovarian): > 100 µM
- TGI (OVCAR-5 ovarian): > 100 µM
- TGI (OVCAR-8 ovarian): > 100 µM
- TGI (PC-3 prostate): > 100 µM
- TGI (SF-268 CNS): 83.8 µM
- TGI (SF-295 CNS): > 100 µM
- TGI (SF-539 CNS): > 100 µM
- TGI (SK-MEL-2 melanoma): 31.2 µM
- TGI (SK-MEL-28 melanoma): > 100 µM
- TGI (SK-MEL-5 melanoma): 28.1 µM
- TGI (SK-OV-3 ovarian): > 100 µM
- TGI (SN12C renal): > 100 µM
- TGI (SNB-19 CNS): > 100 µM
- TGI (SR leukemia): 45.8 µM
- TGI (SW-620 colon): > 100 µM
- TGI (T-47D breast): > 100 µM
- TGI (TK-10 renal): > 100 µM
- TGI (U251 CNS): > 100 µM
- TGI (UACC-257 melanoma): > 100 µM
- TGI (UACC-62 melanoma): > 100 µM
- TGI (UO-31 renal): 70 µM

SMILES: Nc1ncnc2c1ncn2[C@@H]1C[C@H](NO)[C@@H](O)[C@H]1O
- TGI (786-0 renal): > 100 µM
- TGI (A498 renal): > 100 µM
- TGI (A549 NSCLC): > 100 µM
- TGI (ACHN renal): > 100 µM
- TGI (BT-549 breast): > 100 µM
- TGI (CCRF-CEM leukemia): > 100 µM
- TGI (COLO 205 colon): > 100 µM
- TGI (DU-145 prostate): > 100 µM
- TGI (EKVX NSCLC): > 100 µM
- TGI (HCC-2998 colon): > 100 µM
- TGI (HCT-116 colon): > 100 µM
- TGI (HCT-15 colon): > 100 µM
- TGI (HOP-62 NSCLC): > 100 µM
- TGI (HOP-92 NSCLC): > 100 µM
- TGI (HS 578T breast): > 100 µM
- TGI (IGROV1 ovarian): > 100 µM
- TGI (K-562 leukemia): > 100 µM
- TGI (KM12 colon): > 100 µM
- TGI (LOX IMVI melanoma): > 100 µM
- TGI (M14 melanoma): > 100 µM
- TGI (MALME-3M melanoma): > 100 µM
- TGI (MCF7 breast): > 100 µM
- TGI (MDA-MB-231 breast): > 100 µM
- TGI (MDA-MB-435): > 100 µM
- TGI (MDA-N): > 100 µM
- TGI (MOLT-4 leukemia): > 100 µM
- TGI (NCI-H226 lung): > 100 µM
- TGI (NCI-H23 lung): > 100 µM
- TGI (NCI-H460 lung): > 100 µM
- TGI (NCI-H522 lung): > 100 µM
- TGI (NCI/ADR-RES ovarian): > 100 µM
- TGI (OVCAR-3 ovarian): > 100 µM
- TGI (OVCAR-4 ovarian): > 100 µM
- TGI (OVCAR-5 ovarian): > 100 µM
- TGI (OVCAR-8 ovarian): > 100 µM
- TGI (PC-3 prostate): > 100 µM
- TGI (RPMI-8226 leukemia): > 100 µM
- TGI (RXF 393 renal): > 100 µM
- TGI (SF-268 CNS): > 100 µM
- TGI (SF-295 CNS): > 100 µM
- TGI (SF-539 CNS): > 100 µM
- TGI (SK-MEL-2 melanoma): > 100 µM
- TGI (SK-MEL-28 melanoma): > 100 µM
- TGI (SK-MEL-5 melanoma): > 100 µM
- TGI (SK-OV-3 ovarian): > 100 µM
- TGI (SN12C renal): > 100 µM
- TGI (SNB-19 CNS): > 100 µM
- TGI (SNB-75 CNS): > 100 µM
- TGI (SR leukemia): > 100 µM
- TGI (SW-620 colon): > 100 µM
- TGI (T-47D breast): > 100 µM
- TGI (TK-10 renal): > 100 µM
- TGI (U251 CNS): > 100 µM
- TGI (UACC-257 melanoma): > 100 µM
- TGI (UACC-62 melanoma): > 100 µM
- TGI (UO-31 renal): > 100 µM
